Measured values taken from patent US9561228B2 (Celgene Avilomics Research, Inc., priority 2013, dated 2017).

Experiments:
Erk1 = molecular target: T1, Erk1 (Homo sapiens, UniProt P27361); experiment: Protein Mass Modification Assay (intact protein MALDI, 60 min, 10-fold excess of compound); type: binding
T1 construct: purchased Millipore 14-439
Summary of the method: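 Percent covalent modification comes from the intact-protein MALDI centroid mass shift, treated versus control, divided by compound MW. Before analysis, human Erk1 was exposed to compound at 10-fold excess over protein for 60 min at room temperature.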

MEK1 activated ERK1 = molecular target: T2, MEK1 activated ERK1 (Homo sapiens, UniProt P27361); experiment: Omnia continuous-read kinase assay for potency against MEK1 activated ERK1; type: biochemical; conditions: ATP at KM, WT
T2 construct: purchased Millipore (Billerica, Mass.) 14-439-K
Summary of the method: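 Apparent IC50 came from initial reaction slopes (RFU vs time) plotted against log inhibitor with a variable-slope fit. Reactions were started with ERK1 (4 nM final) added to 50 μM ATP, roughly at its appKM, and 10 μM Sox-conjugated ST17 peptide in 20 mM Tris pH 7.5, 5 mM MgCl2. Fluorescence was monitored every 71 seconds.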

[1] = test system: ERK1/2 phosphorylation of p90RSK in HT29 cells; experiment: pRSK MSD Assay in HT29 cells; type: cell-based; conditions: Homo sapiens, HT-29, read-out: ERK1/ERK2 PRSK MSD HT29 EC50
Summary of the method: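 Phospho-RSK level, read by electrochemiluminescence on RSK-antibody-coated MSD plates with a phospho-RSK/Sulfo-tag detection pair, reports cellular ERK1/2 activity. HT29 cells, kept overnight in 0.1% FBS medium, were exposed to compound for 120 min at 37° C before lysis.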

T2 sequence (P27361 whole entry): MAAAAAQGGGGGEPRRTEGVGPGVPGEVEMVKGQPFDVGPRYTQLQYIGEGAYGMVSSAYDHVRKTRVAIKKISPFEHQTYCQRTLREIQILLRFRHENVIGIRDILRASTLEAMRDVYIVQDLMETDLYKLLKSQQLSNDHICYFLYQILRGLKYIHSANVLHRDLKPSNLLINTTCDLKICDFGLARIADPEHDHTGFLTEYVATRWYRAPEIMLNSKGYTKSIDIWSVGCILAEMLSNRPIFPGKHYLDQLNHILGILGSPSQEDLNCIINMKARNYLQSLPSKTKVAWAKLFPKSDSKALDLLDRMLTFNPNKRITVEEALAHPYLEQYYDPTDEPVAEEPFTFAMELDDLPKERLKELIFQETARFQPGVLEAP
T1 sequence (P27361 whole entry): as above

ERK1 Mass Mod (%) (Erk1)	IC50 (MEK1 activated ERK1) [nM]	EC50 [1] [nM]	SMILES
E (a mass modification of ≧70%)	> 1000	> 1000	C=CC(=O)Nc1ccc(OCC(N)=O)cc1Nc1nc(NC2CCOCC2)ncc1C(F)(F)F [Compound I-395, N-(4-(2-amino-2-oxoethoxy)-2-((2-((tetrahydro-2H-pyran-4-yl)amino)-5-(trifluoromethyl)pyrimidin-4-yl)amino)phenyl)acrylamide]
–	> 1000	> 1000	C=CC(=O)Nc1cc(C)ccc1Nc1nc(Nc2cc(C(F)(F)F)nn2C)ncc1C(F)(F)F [Compound I-419, N-(5-methyl-2-((2-((1-methyl-3-(trifluoromethyl)-1H-pyrazol-5-yl)amino)-5-(trifluoromethyl)pyrimidin-4-yl)amino)phenyl)acrylamide]
–	> 1000	> 1000	C=CC(=O)Nc1cc(C)ccc1Nc1nc(NCC2COC2)ncc1C(F)(F)F [Compound I-417, N-(5-methyl-2-((2-((oxetan-3-ylmethyl)amino)-5-(trifluoromethyl)pyrimidin-4-yl)amino)phenyl)acrylamide]
–	< 100	101 to 500	C=CC(=O)Nc1cc(OCCN2CCN(C(C)=O)CC2)ccc1Nc1nc(Nc2cc(OC)ncc2C)ncc1C(F)(F)F [Compound I-416, N-(5-(2-(4-acetylpiperazin-1-yl)ethoxy)-2-((2-((2-methoxy-5-methylpyridin-4-yl)amino)-5-(trifluoromethyl)pyrimidin-4-yl)amino)phenyl)acrylamide]
F (a mass modification of 31-69%)	501 to 999	> 1000	C=CC(=O)Nc1cc(C)ccc1Nc1nc(Nc2cnc(OC)cc2C)ncc1C(F)(F)F [Compound I-350, N-(2-((2-((6-methoxy-4-methylpyridin-3-yl)amino)-5-(trifluoromethyl)pyrimidin-4-yl)amino)-5-methylphenyl)acrylamide]
–	101 to 500	101 to 500	C=CC(=O)Nc1cc(CCc2cnn(C)c2)ccc1Nc1nc(Nc2cc(OC)ncc2C)ncc1C(F)(F)F [Compound I-427, N-(2-((2-((2-methoxy-5-methylpyridin-4-yl)amino)-5-(trifluoromethyl)pyrimidin-4-yl)amino)-5-(2-(1-methyl-1H-pyrazol-4-yl)ethyl)phenyl)acrylamide]
–	< 100	> 1000	C=CC(=O)Nc1cc(O[C@@H](C)C(N)=O)ccc1Nc1nc(Nc2cc(OC)ncc2C)ncc1C(F)(F)F [Compound I-412, (S)—N-(5-((1-amino-1-oxopropan-2-yl)oxy)-2-((2-((2-methoxy-5-methylpyridin-4-yl)amino)-5-(trifluoromethyl)pyrimidin-4-yl)amino)phenyl)acrylamide]
–	< 100	101 to 500	C=CC(=O)Nc1cc(O[C@H](C)C(=O)N2CCN(S(C)(=O)=O)CC2)ccc1Nc1nc(Nc2cc(OC)ncc2C)ncc1C(F)(F)F [Compound I-410, (R)—N-(2-((2-((2-methoxy-5-methylpyridin-4-yl)amino)-5-(trifluoromethyl)pyrimidin-4-yl)amino)-5-((1-(4-(methylsulfonyl)piperazin-1-yl)-1-oxopropan-2-yl)oxy)phenyl)acrylamide]
–	101 to 500	< 100	C=CC(=O)Nc1cc(OC(F)(F)F)ccc1Nc1nc(Nc2cc(OC)ncc2C)ncc1C(F)(F)F [Compound I-407, N-(2-((2-((2-methoxy-5-methylpyridin-4-yl)amino)-5-(trifluoromethyl)pyrimidin-4-yl)amino)-5-(trifluoromethoxy)phenyl)acrylamide]
–	101 to 500	501 to 999	C=CC(=O)Nc1cc(C)ccc1Nc1nc(Nc2cc(C(=O)OC)nn2C)ncc1C(F)(F)F [Compound I-418, Methyl 5-((4-((2-acrylamido-4-methylphenyl)amino)-5-(trifluoromethyl)pyrimidin-2-yl)amino)-1-methyl-1H-pyrazole-3-carboxylate]
–	> 1000	> 1000	C=CC(=O)Nc1cc(C)ccc1Nc1nc(NC2COC2)ncc1C(F)(F)F [Compound I-420, N-(5-methyl-2-((2-(oxetan-3-ylamino)-5-(trifluoromethyl)pyrimidin-4-yl)amino)phenyl)acrylamide]
–	501 to 999	< 100	C=CC(=O)Nc1cc(O[C@@H](C)C(=O)N2CCN(S(C)(=O)=O)CC2)ccc1Nc1nc(Nc2cc(OC)ncc2C)ncc1C(F)(F)F [Compound I-426, (S)—N-(2-((2-((2-methoxy-5-methylpyridin-4-yl)amino)-5-(trifluoromethyl)pyrimidin-4-yl)amino)-5-((1-(4-(methylsulfonyl)piperazin-1-yl)-1-oxopropan-2-yl)oxy)phenyl)acrylamide]
–	< 100	501 to 999	C=CC(=O)Nc1cc(O[C@H](C)C(=O)N2CCN(C(C)=O)CC2)ccc1Nc1nc(Nc2cc(OC)ncc2C)ncc1C(F)(F)F [Compound I-409, (R)—N-(5-((1-(4-acetylpiperazin-1-yl)-1-oxopropan-2-yl)oxy)-2-((2-((2-methoxy-5-methylpyridin-4-yl)amino)-5-(trifluoromethyl)pyrimidin-4-yl)amino)phenyl)acrylamide]
–	101 to 500	101 to 500	C=CC(=O)Nc1cc(C)ccc1Nc1nc(Nc2cc(OC)ncc2CC)ncc1C(F)(F)F [Compound I-408, N-(2-((2-((5-ethyl-2-methoxypyridin-4-yl)amino)-5-(trifluoromethyl)pyrimidin-4-yl)amino)-5-methylphenyl)acrylamide]
–	< 100	501 to 999	C=CC(=O)Nc1cc(OCC(=O)N2CCN(C(C)=O)CC2)ccc1Nc1nc(Nc2cc(OC)ncc2OC)ncc1C(F)(F)F [Compound I-415, N-(5-(2-(4-acetylpiperazin-1-yl)-2-oxoethoxy)-2-((2-((2,5-dimethoxypyridin-4-yl)amino)-5-(trifluoromethyl)pyrimidin-4-yl)amino)phenyl)acrylamide]
–	< 100	101 to 500	C=CC(=O)Nc1cc(CN2CCN(C(C)=O)C[C@H]2C)ccc1Nc1nc(Nc2cc(OC)ncc2C)ncc1C(F)(F)F [Compound I-422, (R)—N-(5-((4-acetyl-2-methylpiperazin-1-yl)methyl)-2-((2-((2-methoxy-5-methylpyridin-4-yl)amino)-5-(trifluoromethyl)pyrimidin-4-yl)amino)phenyl)acrylamide]
–	> 1000	> 1000	C=CC(=O)Nc1c(Nc2nc(Nc3cc(OC)ncc3C)ncc2OC)cccc1OCc1nccs1 [Compound I-411, N-(2-((5-methoxy-2-((2-methoxy-5-methylpyridin-4-yl)amino)pyrimidin-4-yl)amino)-6-(thiazol-2-ylmethoxy)phenyl)acrylamide]
–	< 100	< 100	C=CC(=O)Nc1cc(O[C@H](C)C(N)=O)ccc1Nc1nc(Nc2cc(OC)ncc2C)ncc1C(F)(F)F [Compound I-413, (R)—N-(5-((1-amino-1-oxopropan-2-yl)oxy)-2-((2-((2-methoxy-5-methylpyridin-4-yl)amino)-5-(trifluoromethyl)pyrimidin-4-yl)amino)phenyl)acrylamide]
–	101 to 500	< 100	C=CC(=O)Nc1cc(CN2CCN(C(=O)c3ccccn3)CC2)ccc1Nc1nc(Nc2cc(OC)ncc2C)ncc1C(F)(F)F [Compound I-388, N-(2-((2-((2-methoxy-5-methylpyridin-4-yl)amino)-5-(trifluoromethyl)pyrimidin-4-yl)amino)-5-((4-picolinoylpiperazin-1-yl)methyl)phenyl)acrylamide]
–	< 100	101 to 500	C=CC(=O)Nc1cc(CN2CCN(C(C)=O)C[C@@H]2C)ccc1Nc1nc(Nc2cc(OC)ncc2C)ncc1C(F)(F)F [Compound I-421, (S)—N-(5-((4-acetyl-2-methylpiperazin-1-yl)methyl)-2-((2-((2-methoxy-5-methylpyridin-4-yl)amino)-5-(trifluoromethyl)pyrimidin-4-yl)amino)phenyl)acrylamide]
–	101 to 500	101 to 500	C=CC(=O)Nc1cc(O[C@@H](C)C(=O)N2CCN(C(C)=O)CC2)ccc1Nc1nc(Nc2cc(OC)ncc2C)ncc1C(F)(F)F [Compound I-425, (S)—N-(5-((1-(4-acetylpiperazin-1-yl)-1-oxopropan-2-yl)oxy)-2-((2-((2-methoxy-5-methylpyridin-4-yl)amino)-5-(trifluoromethyl)pyrimidin-4-yl)amino)phenyl)acrylamide]
–	> 1000	101 to 500	C=CC(=O)Nc1cc(C)ccc1Nc1nc(Nc2cc(C(=O)NC)nn2C)ncc1C(F)(F)F [Compound I-424, 5-((4-((2-acrylamido-4-methylphenyl)amino)-5-(trifluoromethyl)pyrimidin-2-yl)amino)-N,1-dimethyl-1H-pyrazole-3-carboxamide]
–	101 to 500	101 to 500	C=CC(=O)Nc1cc(CN2CCN(C(=O)c3ccccn3)CC2)ccc1Nc1nc(Nc2nc(OC)ncc2C)ncc1C(F)(F)F [Compound I-391, N-(2-((2-((2-methoxy-5-methylpyrimidin-4-yl)amino)-5-(trifluoromethyl)pyrimidin-4-yl)amino)-5-((4-picolinoylpiperazin-1-yl)methyl)phenyl)acrylamide]
–	> 1000	> 1000	C=CC(=O)Nc1cc(C)ccc1Nc1nc(Nc2cc(C(N)=O)nn2C)ncc1C(F)(F)F [Compound I-423, 5-((4-((2-acrylamido-4-methylphenyl)amino)-5-(trifluoromethyl)pyrimidin-2-yl)amino)-1-methyl-1H-pyrazole-3-carboxamide]
